# Assay results taken from patent US8828469B2, “Use of alkamides for masking an unpleasant flavor” (Symrise AG, priority 2007, dated 2014).
# Assay: Tests carried out by the Applicant on masking or reducing unpleasant flavor impressions
# Conditions: for effect for masking or reducing the unpleasant flavor impression of an unpleasant-tasting substance: among the alkamides tested by the Applicant
Structure (SMILES),effect for masking or reducing the unpleasant flavor impression of an unpleasant-tasting substance,"effect to change, mask or reduce the unpleasant flavor impression (very low concentrations which are not sufficient to intensify salivation)"
"CCCCC/C=C/C=C/C(=O)NCC(C)C [Formula (1), 2E,4E-decadienoic acid-N-isobutylamide]",best effect,very strong effect
"CCCCC/C=C\C=C\C(=O)NCC(C)C [Formula (2), 2E,4Z-decadienoic acid-N-isobutylamide]",best effect,–
"CCCCC/C=C\C=C/C(=O)NCC(C)C [Formula (3), 2Z,4Z-decadienoic acid-N-isobutylamide]",best effect,–
"CCCCC/C=C/C=C\C(=O)NCC(C)C [Formula (4), 2Z,4E-decadienoic acid-N-isobutylamide]",best effect,–
